{
  "source": "patent US12605358B2",
  "about": "“Composition for preventing or treating nervous system diseases comprising compound that inhibits mTOR signaling pathway as active ingredient” (ALIAD BIOPHARMA, priority 2021, dated 2026)",
  "key": {"[1]": {"system": "primary cultured cerebral neurons", "test": "Neuron protective efficacy against Aβ toxicity (DAPI cell count)", "format": "cell-based, rat", "conditions": "Aβ 0.5 or 1 μM, HN-1703 0.1 or 0.5 μM, 12 or 24 hours; Aβ alone reduced viability by 50% or more; FIGS. 5A, 5B", "procedure": "Primary cultured neurons from the cerebral cortex of rat embryos (E16) were treated with […] or 1 μM Aβ and 0.1 μM or 0.5 μM HN-1703 for 12 or 24 hours. Cell viability was evaluated by measuring the number of cells stained with DAPI.\nAβ has strong toxicity to neurons, and the death of neurons caused by Aβ accumulated in the brain is a major cause of Alzheimer's disease. To evaluate whether HN-1703 for inhibiting the mTOR signaling pathway and promoting autophagy may directly protect neurons from Aβ toxicity, an inhibitory effect of HN-1703 on Aβ-induced apoptosis of primary cultured cerebral neurons was evaluated, and the number of live cells stained with DAPI was quantified and shown in FIGS. 5A and 5B."}, "5xFAD transgenic mice [2]": {"system": "5xFAD transgenic mice", "test": "Senile plaques removal, Thioflavin-S staining of brain slices", "format": "in vivo", "procedure": "(§1) 5xFAD animals were administered with HN-1703 at three doses for 14 days to male heterozygotes aged 6 months (all born within 3 days). The behaviors of mice were measured in a dark cycle in which the mice were active while alternating light and dark in a 12-hour cycle in a breeding room chamber, and the mice were freely accessible to food and water and bred in compliance with experimental animal ethical guidelines of Kyung Hee University. In each group, the HN-1703 was intraperitoneally injected at the same time once a day in a volume of 100 μl to 12 mice in a normal group (wild type littermate), 9 5xFAD mice in a vehicle (DMSO administration), 8 5xFAD mice in a 5 mg/kg administered group, 9 5xFAD mice in a 10 mg/kg administered group, and 9 5xFAD mice in a 20 mg/kg administered group. […] In a behavioral measurement room, humidity (40 to 60%) and temperature (22 to 26° C.) were maintained, and reflected light was maintained to avoid sound and light effects. Behavioral measures were measured in Y-maze, Morris Water Maze, and Passive Avoidance test for 18 days in sequence.\n(§2) A brain slice immunostaining method was modified and used as described in Heo H et al. (J Ethnopharmacol, 2009). Mice were transcardially perfused with 4% PFA. After being immersed and fixed in 4% PFA for 4 hours, the brain tissue was unfrozen in 30% sucrose, frozen in an optimal cutting temperature (OCT) mixture, and stored at −80° C. Brain tissue slices were sectioned in a coronal direction at a thickness of 35 μm. The brain tissue slices were immersed in a storage solution (30% glycerol, 30% ethylene glycol, PBS) and stored at 4° C. The stored brain slices were permeabilized in 0.5% Triton X-100 for 20 minutes and shaken in 2 N HCl for 30 minutes at 37° C. Then, the brain slices were blocked in a free-floating state for 2 hours in 15% standard serum, 3% bovine serum albumin (BSA, bio-WORLD, Dublin, OH, USA) and 0.1% Triton X-100. The slices were shaken with a first antibody for 16 hours at 4° C. Thereafter, a second antibody complementary to the first antibody was attached at room temperature (22±1° C.) for 45 minutes. Then, the nuclei were washed with physiological saline (PBS) containing 1 μg/ml PI (propidiumiodide, Sigma) or DAPI (1:4000), and then placed on a slide glass and sealed using an aqueous mount, and observed under a confocal scanning microscope for tissue observation (LSM 810 Carl Zeiss, Oberkochen, Germany).\nBrain slices segmented in a coronal direction were selected from the front to the back of the brain by one slice every 5 slices, and 5 to 11 slices for each animal's brain were co-stained with thioflavin-S and DAPI.\nFIG. 7 is confocal scanning micrographs of the hippocampal dentate gyrus, and the entorhinal cortex and temporal lobe of the cerebral cortex, after staining senile plaques by treating the brain slice with Thioflavin-S, and FIG. 8 illustrates quantifying the entire area and staining intensity of the senile plaques stained with Thioflavin-S."}, "5xFAD transgenic mice [3]": {"system": "5xFAD transgenic mice", "test": "Autophagy activation in neurons and microglia (Iba-1/MAP2/LC3 staining)", "format": "in vivo", "conditions": "FIG. 16", "procedure": "as §1\nas §2, with “Germany). […]” for “Germany).”\nFIG. 16 illustrates confocal scanning micrographs of the hippocampal dentate gyrus region after triple staining with an Iba-1 antibody, an MAP2 antibody, and an LC3 antibody, and quantifying the number of LC3+/MAP2+ cells, the number of LC3+/Iba-1+ cells, the number of MAP2+ cells, and the number of Iba-1+ cells."}, "[4]": {"conditions": "compared to the 5xFAD-DMSO control group, FIG. 8"}},
  "data": [
    {"smiles": "COc1cc(OC)c2c(=O)c3cc4c(cc3oc2c1)OCO4", "note": "[HN-1703, 7,9-dimethoxy-10H-[1,3]dioxolo[4,5-b]xanthen-10-one]", "values": [
      {"measurement": "cell viability (number of live cells stained with DAPI) under Aβ toxicity", "setting": "[1]", "value": "viability was significantly increased"},
      {"measurement": "reduction of senile plaques compared to the 5xFAD-DMSO group", "setting": "5xFAD transgenic mice [2]; 20 mg/kg, dentate gyrus, FIG. 7", "value": "≥ 70", "unit": "%"},
      {"measurement": "senile plaques stained with Thioflavin-S", "setting": "5xFAD transgenic mice [2]; 5 to 20 mg/kg, hippocampal dentate gyrus, entorhinal cortex, temporal lobe, FIG. 7", "value": "reduced in a dose-dependent manner"},
      {"measurement": "number of senile plaques having sizes of 10 to 20 μm and 20 μm or more", "setting": "5xFAD transgenic mice [2]; all brain regions tested, compared to the 5xFAD-DMSO control group, FIG. 8", "value": "decreased in a dose-dependent manner"},
      {"measurement": "entire area of senile plaques", "setting": "5xFAD transgenic mice [2]; [4]", "value": "decreased in a dose-dependent manner"},
      {"measurement": "staining intensity of senile plaques", "setting": "5xFAD transgenic mice [2]; [4]", "value": "decreased in a dose-dependent manner"},
      {"measurement": "activated microglia, Iba-1+ cells", "setting": "5xFAD transgenic mice [3]; 5 to 20 mg/kg, compared to the 5xFAD-DMSO control group", "value": "greatly reduced"},
      {"measurement": "number of neurons double-stained with MAP2 and LC3-II", "setting": "5xFAD transgenic mice [3]", "value": "increased in a dose-dependent manner"},
      {"measurement": "number of MAP2+ neurons in the dentate gyrus", "setting": "5xFAD transgenic mice [3]; approaches the WT normal group", "value": "increased in a dose-dependent manner"},
      {"measurement": "autophagy-activated microglia double-stained with LC3-II", "setting": "5xFAD transgenic mice [3]; compared to the 5xFAD-DMSO control group, dose-dependent", "value": "increased twice or more"}
    ]}
  ]
}
